Experimental findings from patent US20250320198A1, “SALT OF ENDOTHELIN A (ETA) RECEPTOR ANTAGONIST COMPOUND, AND PREPARATION METHOD THEREFOR AND MEDICAL USE THEREOF” (SHENZHEN SALUBRIS PHARMACEUTICALS CO., LTD, priority 2022, published 2025) are described below.

Data set [1] can be described thus: Study on hygroscopicity by dynamic vapor sorption (DVS). Conditions: for Hygroscopicity (in words): 25° C.; for Vapor sorption: 25° C./80% RH. The data set is classed as physicochemical. As to the method:
Hygroscopicity of sulphate, phosphate, hydrochloride, and oxalate was evaluated using a dynamic vapor sorption (DVS). The test collected percentage changes in mass of samples under a constant temperature condition of 25° C. with changes in humidity.

Data set [2] is described as follows: Study on stability of salts (chemical stability by HPLC). Conditions: for Stability (in words): 25° C./60% RH and 40° C./75% RH. The data set is classed as physicochemical.
Data set [3] in a line: Research on compound microsome: prototype remaining and transformation to Atrasentan in human liver microsomes (+NADPH). Format: in vitro ADME. Conditions: human liver microsome (+NADPH), 37° C. As to the method: Human liver microsomes were all purchased from Rild Liver Disease Research (Shanghai) Co., Ltd.
Reagents: dimethyl sulfoxide (DMSO), acetonitrile, formic acid, and propranolol (internal standard) are all commercially available.
Instrument: Thermo Fisher Scientific LC-MS (U300 UPLC, TSQ QUANTUMN ULTRA triple quadrupole mass spectrometer).
A certain amount of compound was precisely weighed and dissolved in DMSO to prepare a 10 mM stock solution, and the stock solution was diluted with a diluent (ACN:H2O=1:1) to a 100 μM working solution, and then diluted with a 0.1 M potassium phosphate buffer solution to a 3 μM administration solution for later use. 75 μL of liver microsomes were taken and added into 925 μL of a 0.1 M potassium phosphate buffer solution to be mixed uniformly to obtain a 1.5 mg/mL liver microsome suspension, and the liver microsome suspension was pre-incubated at 37° C. for 10 minutes. Preparation at 0 o'clock: 15 μL of the above liver microsome suspension was taken and added into a 6 mM NADPH solution, 150 μL of a propranolol acetonitrile solution was added immediately for precipitation, and then 15 μL of the above administration solution was added and mixed uniformly for later use. Preparation of samples at 20 minutes and 60 minutes: 15 μL of the administration solution was taken, 15 μL of the liver microsome suspension and 15 μL of the 6 mM NADPH solution were added and mixed uniformly, and a mixture was incubated at 37° C. for 20 minutes and 60 minutes, respectively. The preparation of the above samples was carried out using dual-pore parallel operation. When the above samples are incubated to the relevant time point, 150 μL of the propranolol acetonitrile solution was added to terminate the reaction. All the above samples were centrifuged at 4000 rpm for 5 minutes, and 100 μL of a supernatant was taken, added into 100 μL of ultrapure water and mixed uniformly for LC-MS/MS analysis. LC-MS/MS detection conditions are as follows:
Chromatographic column: Waters ACQUITY™ PREMIER HSS T3, 50*2.1 mm, 1.8 μm.
Mobile phase: water (0.1% formic acid)—acetonitrile. Perform gradient elution according to the table below.
An initial 0 o'clock was taken as 100%, a relative residual content of the drug at each time point was calculated, and each time point of Atrasentan was taken as 100% to calculate the relative amount of transformation of the compound in the embodiment to Atrasentan.
Background: Liver microsomes are vesicles of endoplasmic reticulum, rich in cytochrome P450 enzymes.

The nature of data set [4]: Pharmacokinetic study of compound in rats (Embodiment 14), intragastric administration. The data set is classed as in vivo. Conditions: SD rats. An excerpt: SD rats: male, 200-300 g, purchased from Beijing Vital River Laboratory Animal Technology Co., Ltd.
Reagents: dimethyl sulfoxide (DMSO), polyethylene glycol 400 (PEG-400), normal saline, heparin, acetonitrile, formic acid, and propranolol (internal standard) are all commercially available.
Instrument: Thermo Fisher Scientific LC-MS/MS (U300 UPLC, TSQ QUANTUMN ULTRA triple quadrupole mass spectrometer).
The compound was weighed and dissolved in a DMSO-PEG-400-normal saline (5:60:35, v/v/v) system. After intragastric administration to rats, 200 μL of venous blood was collected in a sodium-fluoride heparinized EP tube at 15 minutes, 30 minutes, 1 hour, 2 hours, 5 hours, 7 hours, and 24 hours after administration and centrifuged at 12000 rpm for 2 minutes. Plasma was taken and frozen and preserved at −80° C. for testing. A certain amount of samples for test was precisely weighed and dissolved in DMSO to 2 mg/mL as a stock solution. An appropriate amount of compound stock solution was accurately sucked, and diluted by adding acetonitrile to prepare a standard series solution. 20 μL of each of the above standard series solution was accurately sucked, 180 μL of blank plasma was added, and vortex mixing was performed to prepare plasma samples equivalent to plasma concentrations of 1 ng/mL, 3 ng/mL, 5 ng/mL, 10 ng/mL, 30 ng/mL, 100 ng/mL, 300 ng/mL, 1000 ng/mL, and 3000 ng/mL. […]

For the compound `CCCCN(CCCC)C(=O)CN1C[C@H](c2ccc3c(c2)OCO3)[C@@H](C(=O)OC(C)OC(=O)OC(C)C)[C@@H]1c1ccc(OC)cc1.O=C(O)C(=O)O` (some centres unmarked) [Oxalate], the “Hygroscopicity (in words)” value in data set [1] is listed as “lower hygroscopicity”. The Vapor sorption in data set [1] is reported as 0.96%. The “Stability (in words)” value in data set [2] (one week) is “good stability”. Further, the “Purity (area %)” value is reported as 99.39 area % in data set [2] (25° C./60% RH, one week); 98.52 area % in data set [2] (40° C./75% RH, one week); 99.56 area % in data set [2] (Start).

For `CCCCN(CCCC)C(=O)CN1C[C@H](c2ccc3c(c2)OCO3)[C@@H](C(=O)OC(C)OC(=O)OC2CC2)[C@@H]1c1ccc(OC)cc1` (stereo partly drawn) [Compound 7, 1-[(cyclopropoxycarbonyl)oxy]ethyl-(2R,3R,4S)-4-(benzo[d][1,3]dioxolane-5-yl)-1-[2-(dibutylamino)-2-oxoethyl]-2-(4-methoxyphenyl)pyrrolidine-3-carboxylate], the “Prototype remaining quantity (%) Mean” value in data set [3] (time 0 min (taken as 100%)) turned out to be 100.0%; in data set [3] (time 20 min) it was 0.10%; in data set [3] (time 60 min), 0.47%. Besides, the “Absorption after intragastric administration compared with Atrasentan (in words)” value in data set [4] is listed as “not as good as that of Atrasentan”. Also, in data set [4], the “Exposure level in rats compared with the same dosage of Atrasentan (in words)” value was “significantly lower than that of the same dosage of Atrasentan”.

In the case of `CCCCN(CCCC)C(=O)CN1C[C@H](c2ccc3c(c2)OCO3)[C@@H](C(=O)OC(C)OC(=O)OC(C)C)[C@@H]1c1ccc(OC)cc1` (some centres unmarked) [Phosphate], the “Hygroscopicity (in words)” value in data set [1] was “lower hygroscopicity”. In addition, the Vapor sorption in data set [1] is on record as 1.52%. For the same compound, in data set [2] (one week), the “Stability (in words)” value was “good stability”. Also, the “Purity (area %)” value in data set [2] (25° C./60% RH, one week) is 98.81 area %; in data set [2] (40° C./75% RH, one week) it was 95.49 area %; in data set [2] (Start) it was 99.29 area %.
